Here are results for three molecules from patent US5597822A, “Pharmaceutical compositions for the prevention and/or treatment a gastrointestinal diseases” (Egis Pharmaceutical, priority 1993, dated 1997).

Data set [1] is described as follows: in vivo. To be noted: mouse, po, NMRI mice, 7 days, "higher than" = highest dose administered without any death. Here is the method:
The acute toxicity was determined on NMRI strain mice of both sexes weighing 20 to 25 g each by using 6 animals for each dose. The compounds to be tested were administered perorally in a volume of 20 ml/kg, the highest dose applied was 1000 mg/kg. After the administration the animals were kept under usual laboratory conditions for 7 days.
The data given as "higher than" a certain value mean the highest dose administered without noting any death of animals.

Data set [2] concerns Helicobacter pylori. As to the kind of experiment: Antibacterial effect on Helicobacter pylori (MIC, blood agar). To be noted: for MIC: Helicobacter pylori, 72 h. Type of data set: cell-based. Here is the method:
Helicobacter pylori strains used in these experiments were obtained from the biopsial samples of the stomachs of patients suffering from ulcerative diseases of the gastrointestinal system. From the pure culture of isolates a thick suspension was prepared with cysteine-inositol solution suitable for lyophilisation, and the suspension obtained was maintained in cold-resistant plastic ampoules in a deep-freezing chamber at a temperature of about -196 ° C. For the determination of the inhibitory effect of the compounds tested on Helicobacter pylori, blood agar containing 10 mg/liter of vancomycin and 25 mg/liter of amphotericin B was used /C. A. M. McNulty and I. C. Dent: Susceptibility of clinical isolates of Campylobacter pylori to twenty one antimicrobial agents. Book of Abstracts, 4th European Congress of Clinical Microbiology, Nice (1989)/.
The plates containing the strains were cultivated at 37° C. for 72 hours under a gaseous atmosphere containing 10 per cent of carbon dioxide and 5 per cent of oxygen /D. M. Jones et al., J. Clin. Pathol., 37, 1002 (1984)/.
The culture media were inoculated by diluting the broth culture of the strains grown overnight or with a suspension prepared from a culture obtained on a solid medium. About 10^5 of germs were applied to the surface of each plate.
A series of dilution were prepared from the compound to be-tested. The MIC (minimal inhibiting concentration) value of the compounds tested was considered to be the lowest concentration inhibiting the growth of the test organism completely.

Data set [3] has as its system gastric erosions induced by ethanol containing hydrochloric acid. As to the kind of experiment: Test with ethanol containing hydrochloric acid (gastric erosions). Type of data set: in vivo, rat. To be noted: for ED50: po, rat, p.o., HCl/absolute ethanol 1 to 50. Here is the method: (§1) Rats of both sexes weighing 200 to 250 g, each previously starved for 24 hours, were used in this experiment. The lesions of gastric mucosa were induced by the oral administration of absolute ethanol in a dose of 1 ml/animal. After one hour following the administration, the animals were killed by an overdose of ether, the stomach was excised and the alterations of gastric mucosa were examined. The lengths of the erosions were measured and summarized (expressed in mm) for each stomach to obtain the erosion index by calculating the average value of the group. The inhibition was calculated in percentage by comparing the value of the group treated with ethanol to that of the control group treated only with the vehicle. Various doses of the compounds to be tested were administered, perorally, in a volume of 5 ml/kg using a pretreatment time of 60 minutes. Eight rats were used for each dose. /A. Robert, Gastroenterology 77, 761-767 (1979)/.
The principle of the method consists in that, simultaneously with the administration of absolute ethanol, hydrochloric acid is introduced to the stomach. Thus, the influence on systemic gastric acid inhibition action can be eliminated by the presence of the exogenous acid.
The reagent used in this test was a mixture of concentrated aqueous hydrochloric acid and absolute ethanol in a mass ratio of 1 to 50 in accordance with the dilution ratio used by Yamazaki et al., see Japan J. Pharmacol., 55, 415-424 (1991). Otherwise, the experiment was performed as described under test 2.1., however, in addition to the erosion index calculated from the lengths of the erosions in mm, the ratio of occurence of animals showing at least one gastric erosion within a test group, i.e. the erosion frequency, was also evaluated.

Data set [4] has as its system gastric mucosa lesions induced by absolute ethanol. Put plainly: Gastroprotective activity, test with absolute ethanol (gastric mucosa erosions). To be noted: for ED50: po, rat, 60 min pretreatment, absolute ethanol 1 ml/animal, erosion index. Type of data set: in vivo, rat. Here is the method:
as §1
^x Relative activity = ED50 value of the gastric acid inhibition
related to the ED50 value of the inhibition of the gastric erosion.

The test system of data set [5] is gastric acid secretion. As to the kind of experiment: Effect on the gastric acid secretion (Shay's method, pylorus ligation). Type of data set: in vivo, Wistar rats. The following applies: rat, p.o., test according to Shay. On the procedure: The influence of the compounds on the gastric acid secretion was examined on starved Wistar rats of both sexes weighing 180 to 240 g each by using Shay's method /H. Shay et al., Gastroenterology, 5, 45 (1945)/. The compounds to be tested were given, perorally, 3 hours before the ligation of the pylorus. Four hours after the operation, the animals were killed by an overdose of ether, the stomach was excised, the stomach content was centrifuged and the free hydrochloric acid content of the gastric juice was determined by titration in the presence of Topfer's reagent. The percentage of inhibition and then the ED50 values were determined by calculating average values for the groups and comparing those to the average values for the control group.

[6] abbreviates: erosion index, read-out: Inhibition of the erosion index, ED50 p.o.

≈ marks a conversion by molar mass, not a printed value. Like-named read-outs stand apart in the source and are kept apart here. Some results are limits rather than exact numbers.

In the case of `CCCCCCNCC(O)CO/N=C1\CCCC\C1=C/c1ccccc1` (racemic) [Compound C, (R,S)-2-(E)-(phenylmethylene)-1-(E)-[(3-hexylamino-2-hydroxypropoxy)imino]cyclohexane], the LD50 at 168 h in data set [1] was above 1000 mg/kg. The MIC in data set [2] (strain 867/90) is 3.9 µg/mL (≈ 10.9 µM); in data set [2] (strain 1596) it was 7.8 µg/mL (≈ 21.8 µM); in data set [2] (strain 3842) it was 3.9 µg/mL (≈ 10.9 µM); in data set [2] (strain 6656) it was 3.9 µg/mL (≈ 10.9 µM); in data set [2] (strain 6709) it was 3.9 µg/mL (≈ 10.9 µM). Besides, the ED50 in data set [3] (setting [6]) turned out to be 11.5 mg/kg.
Regarding `CN(CC(O)CO/N=C1\CCCC\C1=C/c1ccc(Cl)cc1)C1CCCCC1` (racemic) [Compound D, (R,S)-2-(E)-(4-chlorophenylmethylene)-1-(E)-[3'-(N-methyl-N-cyclohexylamino)-2'-hydroxypropoxyimino]cyclohexane], in data set [4] (ED50 of gastric acid inhibition (Shay) related to ED50 of inhibition of gastric erosion), the “Relative activity related to the inhibition of the free acid” value was determined as 32.3. The ED50 amounted to 2.6 mg/kg in data set [4]; 8.3 mg/kg in data set [3] (erosion frequency, read-out: Inhibition of the erosion frequency, ED50 p.o.); 5.2 mg/kg in data set [3] (setting [6]). In data set [1], the LD50 at 168 h was above 1000 mg/kg. Besides, the MIC in data set [2] (strain 867/90), in data set [2] (strain 1596), in data set [2] (strain 3842), in data set [2] (strain 6656) and in data set [2] (strain 6709) was 15.6 µg/mL (≈ 38.5 µM) each time. The “Inhibition of the erosion index, relative activity” value in data set [3] (ED50 of cetraxate divided by ED50 of compound tested, erosion index) is 4.2. Also, the “Inhibition of the erosion frequency, relative activity” value in data set [3] (related to cetraxate, erosion frequency) is 22.8.
Consider `NC[C@H]1CC[C@H](C(=O)Oc2ccc(CCC(=O)O)cc2)CC1` [cetraxate, trans-3-[4-[4-(aminomethyl)cyclohexylcarbonyloxy]phenyl]-propionic acid, reference compound], for which the figures for the ED50 in data set [4] and in data set [3] (setting [6]) were 76.4 mg/kg and 22 mg/kg, respectively. For the same molecule, in data set [4] (test with absolute ethanol), the “gastroprotective activity (in words)” value was “nearly identical activity”. The MIC is above 500 µg/mL in data set [2] (Table IV, strains not specified, unit inferred); above 500 µg/mL in data set [2] (strain 867/90); above 500 µg/mL in data set [2] (strain 1596); above 500 µg/mL in data set [2] (strain 3842); above 500 µg/mL in data set [2] (strain 6656); above 500 µg/mL in data set [2] (strain 6709). For the same molecule, in data set [2] (Table IV), the “effect on Helicobacter pylori (in words)” value is listed as “ineffective at the concentration indicated”. Further, in data set [5], the “gastric acid secretion inhibition (in words)” value was “only a moderate gastric acid secretion inhibition”.
